Data taken from ChEMBL document CHEMBL5537178, “Discovery of TP0628103: A Highly Potent and Selective MMP-7 Inhibitor with Reduced OATP-Mediated Clearance Designed by Shifting Isoelectric Points” (J Med Chem, 2024).

Tests used:
[1] = Chemical stability of the compound in pH 7.4 aqueous solution assessed as degradation by measuring residual rate incubated for 24 hrs at 65 degC by HPLC analysis; type: physicochemical; settings: read-out: Activity
Interstitial collagenase = target: T1, Interstitial collagenase (Homo sapiens, UniProt P03956); assay: Inhibition of recombinant human MMP1 assessed as enzyme activity by measuring fluorescence using fluorogenic peptide substrate
T1 sequence (P03956 whole entry): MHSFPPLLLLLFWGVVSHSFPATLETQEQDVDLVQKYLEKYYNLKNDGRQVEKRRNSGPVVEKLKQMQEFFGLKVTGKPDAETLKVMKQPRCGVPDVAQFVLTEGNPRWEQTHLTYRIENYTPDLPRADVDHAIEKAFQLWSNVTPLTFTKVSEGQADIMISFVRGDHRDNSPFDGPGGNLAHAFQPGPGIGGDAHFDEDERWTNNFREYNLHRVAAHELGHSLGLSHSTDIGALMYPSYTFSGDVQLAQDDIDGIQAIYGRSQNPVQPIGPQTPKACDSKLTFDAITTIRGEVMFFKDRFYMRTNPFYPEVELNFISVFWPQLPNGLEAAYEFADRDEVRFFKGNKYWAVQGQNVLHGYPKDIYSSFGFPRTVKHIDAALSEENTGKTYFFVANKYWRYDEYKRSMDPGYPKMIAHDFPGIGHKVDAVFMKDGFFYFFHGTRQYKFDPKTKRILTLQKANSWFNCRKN

Neutrophil collagenase = Neutrophil collagenase (Homo sapiens, UniProt P22894); assay: Inhibition of recombinant human MMP8 assessed as enzyme activity by measuring fluorescence using fluorogenic peptide substrate
Neutrophil collagenase, sequence (P22894 whole entry): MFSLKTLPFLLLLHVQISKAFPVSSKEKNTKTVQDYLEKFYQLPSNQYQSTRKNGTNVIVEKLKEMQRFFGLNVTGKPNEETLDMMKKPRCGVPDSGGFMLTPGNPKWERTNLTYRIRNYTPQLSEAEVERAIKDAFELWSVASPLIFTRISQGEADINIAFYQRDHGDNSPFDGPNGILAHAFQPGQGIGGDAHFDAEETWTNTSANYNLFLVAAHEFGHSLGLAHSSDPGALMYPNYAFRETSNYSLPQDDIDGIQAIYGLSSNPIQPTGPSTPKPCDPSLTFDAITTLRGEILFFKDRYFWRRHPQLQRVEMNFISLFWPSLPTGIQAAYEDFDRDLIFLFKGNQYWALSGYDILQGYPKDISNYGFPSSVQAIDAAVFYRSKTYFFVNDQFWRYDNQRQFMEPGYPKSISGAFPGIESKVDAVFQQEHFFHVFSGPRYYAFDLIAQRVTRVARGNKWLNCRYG

[2] = target: Matrix metalloproteinase-9 (Homo sapiens, UniProt P14780); assay: Inhibition of recombinant human MMP9 assessed as enzyme activity by measuring fluorescence using fluorogenic peptide substrate
Matrix metalloproteinase-9, sequence (P14780 whole entry): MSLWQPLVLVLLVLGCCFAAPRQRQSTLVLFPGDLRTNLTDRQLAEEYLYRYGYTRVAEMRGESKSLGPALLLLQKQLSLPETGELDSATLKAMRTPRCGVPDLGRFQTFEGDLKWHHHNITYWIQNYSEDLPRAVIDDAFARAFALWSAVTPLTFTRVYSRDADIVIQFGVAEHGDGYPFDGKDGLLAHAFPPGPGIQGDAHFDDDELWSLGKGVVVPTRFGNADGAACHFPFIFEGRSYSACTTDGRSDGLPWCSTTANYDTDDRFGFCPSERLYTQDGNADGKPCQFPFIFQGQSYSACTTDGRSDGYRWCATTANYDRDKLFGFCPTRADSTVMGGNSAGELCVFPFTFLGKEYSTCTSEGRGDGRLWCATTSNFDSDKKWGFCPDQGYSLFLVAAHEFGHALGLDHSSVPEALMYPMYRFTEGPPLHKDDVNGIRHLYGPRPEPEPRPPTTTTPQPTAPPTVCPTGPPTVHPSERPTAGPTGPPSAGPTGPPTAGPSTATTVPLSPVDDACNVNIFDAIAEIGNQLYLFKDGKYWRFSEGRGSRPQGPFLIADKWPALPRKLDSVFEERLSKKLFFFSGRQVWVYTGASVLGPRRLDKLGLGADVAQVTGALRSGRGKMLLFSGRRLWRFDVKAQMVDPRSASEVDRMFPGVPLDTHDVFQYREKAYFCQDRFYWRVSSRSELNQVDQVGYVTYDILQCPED

[3] = target: Macrophage metalloelastase (Homo sapiens, UniProt P39900); assay: Inhibition of recombinant human MMP12 assessed as enzyme activity by measuring fluorescence using fluorogenic peptide substrate
Macrophage metalloelastase, sequence (P39900 whole entry): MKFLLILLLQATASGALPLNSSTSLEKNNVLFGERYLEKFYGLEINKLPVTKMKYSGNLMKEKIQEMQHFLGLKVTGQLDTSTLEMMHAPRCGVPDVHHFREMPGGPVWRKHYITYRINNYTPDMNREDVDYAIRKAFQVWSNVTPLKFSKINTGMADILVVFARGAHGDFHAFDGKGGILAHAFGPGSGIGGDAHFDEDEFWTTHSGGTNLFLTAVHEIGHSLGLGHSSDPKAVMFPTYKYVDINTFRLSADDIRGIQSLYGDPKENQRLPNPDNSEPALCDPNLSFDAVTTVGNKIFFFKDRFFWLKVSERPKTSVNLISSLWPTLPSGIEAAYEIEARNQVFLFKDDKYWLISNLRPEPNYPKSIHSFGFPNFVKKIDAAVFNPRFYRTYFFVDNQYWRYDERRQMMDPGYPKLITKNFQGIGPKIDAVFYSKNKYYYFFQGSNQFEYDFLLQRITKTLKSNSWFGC

Collagenase 3 = Collagenase 3 (Homo sapiens, UniProt P45452); assay: Inhibition of recombinant human MMP13 assessed as enzyme activity by measuring fluorescence using fluorogenic peptide substrate
[4] = target: Matrix metalloproteinase-14 (Homo sapiens, UniProt P50281); assay: Inhibition of recombinant human MMP14 assessed as enzyme activity by measuring fluorescence using fluorogenic peptide substrate
[5] = Chemical stability of the compound in pH 4 aqueous solution assessed as degradation by measuring residual rate incubated measured after 2 weeks at 65 degC by HPLC analysis; type: physicochemical; settings: read-out: Stability
[6] = Chemical stability of the compound in pH 7.4 aqueous solution assessed as degradation by measuring residual rate incubated measured after 2 weeks at 65 degC by HPLC analysis; type: physicochemical; settings: read-out: Stability
CYP1A2 = target: T2, CYP1A2 (Homo sapiens, UniProt P05177); assay: Inhibition of CYP1A2 in human liver microsomes at 10 uM by LC-MS/MS analysis relative to control; type: ADME, Microsome
T2 sequence (P05177 whole entry): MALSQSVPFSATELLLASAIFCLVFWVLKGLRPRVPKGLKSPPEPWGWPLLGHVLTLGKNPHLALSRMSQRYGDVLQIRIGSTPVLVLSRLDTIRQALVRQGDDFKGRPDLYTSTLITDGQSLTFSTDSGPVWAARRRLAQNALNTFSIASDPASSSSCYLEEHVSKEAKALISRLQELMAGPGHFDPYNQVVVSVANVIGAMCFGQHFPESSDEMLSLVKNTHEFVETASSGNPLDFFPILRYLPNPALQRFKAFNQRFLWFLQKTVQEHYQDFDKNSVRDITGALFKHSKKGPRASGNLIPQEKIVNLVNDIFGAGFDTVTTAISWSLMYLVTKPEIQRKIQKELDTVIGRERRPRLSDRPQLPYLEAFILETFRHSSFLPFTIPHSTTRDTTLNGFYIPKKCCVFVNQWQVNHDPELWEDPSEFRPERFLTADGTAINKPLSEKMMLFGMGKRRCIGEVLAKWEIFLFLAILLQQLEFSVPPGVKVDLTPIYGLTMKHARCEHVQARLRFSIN

CYP2B6 = target: T3, CYP2B6 (Homo sapiens, UniProt P20813); assay: Inhibition of CYP2B6 in human liver microsomes at 10 uM by LC-MS/MS analysis relative to control; type: ADME, Microsome
T3 sequence (P20813 whole entry): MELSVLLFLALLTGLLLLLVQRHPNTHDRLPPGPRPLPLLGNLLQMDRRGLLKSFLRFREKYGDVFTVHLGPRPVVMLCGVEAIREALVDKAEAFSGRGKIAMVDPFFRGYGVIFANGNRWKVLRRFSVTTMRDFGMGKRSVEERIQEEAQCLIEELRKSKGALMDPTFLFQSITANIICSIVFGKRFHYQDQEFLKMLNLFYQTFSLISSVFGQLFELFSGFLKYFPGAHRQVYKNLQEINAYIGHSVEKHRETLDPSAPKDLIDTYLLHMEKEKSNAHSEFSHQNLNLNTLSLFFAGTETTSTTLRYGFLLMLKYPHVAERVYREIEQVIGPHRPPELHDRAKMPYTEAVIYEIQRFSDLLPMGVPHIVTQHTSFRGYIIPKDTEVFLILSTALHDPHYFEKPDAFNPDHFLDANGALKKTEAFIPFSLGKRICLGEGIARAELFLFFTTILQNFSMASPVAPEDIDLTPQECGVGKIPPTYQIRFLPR

CYP2C19 = CYP2C19 (Homo sapiens, UniProt P33261); assay: Inhibition of CYP2C19 in human liver microsomes at 10 uM by LC-MS/MS analysis relative to control; type: ADME, Microsome
CYP2C19, sequence (P33261 whole entry): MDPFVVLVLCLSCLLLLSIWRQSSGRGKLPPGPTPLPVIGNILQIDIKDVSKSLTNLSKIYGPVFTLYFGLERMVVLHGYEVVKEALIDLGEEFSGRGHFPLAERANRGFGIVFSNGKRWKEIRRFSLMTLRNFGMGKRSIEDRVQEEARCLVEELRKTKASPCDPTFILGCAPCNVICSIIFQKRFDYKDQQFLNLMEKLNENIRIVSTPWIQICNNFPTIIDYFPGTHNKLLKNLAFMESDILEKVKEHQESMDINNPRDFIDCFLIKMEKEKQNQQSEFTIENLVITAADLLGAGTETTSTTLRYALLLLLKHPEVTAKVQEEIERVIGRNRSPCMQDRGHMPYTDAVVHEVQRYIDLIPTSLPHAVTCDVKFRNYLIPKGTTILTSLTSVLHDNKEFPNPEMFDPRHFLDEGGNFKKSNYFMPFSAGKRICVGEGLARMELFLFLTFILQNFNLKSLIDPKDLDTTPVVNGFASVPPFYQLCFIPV

CYP2D6 [7] = target: T4, CYP2D6 (Homo sapiens, UniProt P10635); assay: Inhibition of CYP2D6 in human liver microsomes at 10 uM by LC-MS/MS analysis relative to control; type: ADME, Microsome
T4 sequence (P10635 whole entry): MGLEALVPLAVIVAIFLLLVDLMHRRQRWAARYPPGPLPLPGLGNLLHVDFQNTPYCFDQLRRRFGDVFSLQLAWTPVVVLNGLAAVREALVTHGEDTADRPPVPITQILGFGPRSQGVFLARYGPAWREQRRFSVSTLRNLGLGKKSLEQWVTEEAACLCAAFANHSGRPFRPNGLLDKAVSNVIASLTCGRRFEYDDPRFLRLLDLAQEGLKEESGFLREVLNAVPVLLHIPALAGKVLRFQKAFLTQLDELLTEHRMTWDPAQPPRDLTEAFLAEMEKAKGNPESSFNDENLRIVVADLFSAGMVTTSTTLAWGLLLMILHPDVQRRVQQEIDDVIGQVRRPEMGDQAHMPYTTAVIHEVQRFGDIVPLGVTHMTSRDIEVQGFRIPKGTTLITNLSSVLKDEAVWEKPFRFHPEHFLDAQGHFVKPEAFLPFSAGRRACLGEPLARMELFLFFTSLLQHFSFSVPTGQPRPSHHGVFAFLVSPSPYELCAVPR

CYP3A [8] = target: T5, CYP3A (Homo sapiens, UniProt P08684+P20815+P24462+Q9HB55); assay: Inhibition of CYP3A in human liver microsomes using midazolam as substrate at 10 uM by LC-MS/MS analysis relative to control; type: ADME, Microsome; settings: probe midazolam
CYP2D6 [9] = target: T4, CYP2D6; assay: Time dependent inhibition of CYP2D6 in human liver microsomes at 10 uM by LC-MS/MS analysis relative to control; type: ADME, Microsome; settings: read-out: TDI
CYP3A [10] = target: T5, CYP3A; assay: Time dependent inhibition of CYP3A in human liver microsomes using testosterone as substrate at 10 uM by LC-MS/MS analysis relative to control; type: ADME, Microsome; settings: probe testosterone, read-out: TDI
[11] = Fraction unbound in rat; type: ADME
[12] = Fraction unbound in monkey; type: ADME, Macaca mulatta; settings: rhesus monkey
[13] = Volume of distribution at steady state in Sprague-Dawley rat at 0.5 mg/kg, iv; type: ADME, organism-based; settings: in vivo, read-out: Vdss
[14] = Clearance in cynomolgus monkey at 1 mg/kg, iv; type: ADME, organism-based, Macaca fascicularis; settings: in vivo
[15] = target: Voltage-gated inwardly rectifying potassium channel KCNH2 (Homo sapiens, UniProt Q12809); assay: Inhibition of hERG at 10 uM; type: toxicity
Voltage-gated inwardly rectifying potassium channel KCNH2, sequence (Q12809 whole entry): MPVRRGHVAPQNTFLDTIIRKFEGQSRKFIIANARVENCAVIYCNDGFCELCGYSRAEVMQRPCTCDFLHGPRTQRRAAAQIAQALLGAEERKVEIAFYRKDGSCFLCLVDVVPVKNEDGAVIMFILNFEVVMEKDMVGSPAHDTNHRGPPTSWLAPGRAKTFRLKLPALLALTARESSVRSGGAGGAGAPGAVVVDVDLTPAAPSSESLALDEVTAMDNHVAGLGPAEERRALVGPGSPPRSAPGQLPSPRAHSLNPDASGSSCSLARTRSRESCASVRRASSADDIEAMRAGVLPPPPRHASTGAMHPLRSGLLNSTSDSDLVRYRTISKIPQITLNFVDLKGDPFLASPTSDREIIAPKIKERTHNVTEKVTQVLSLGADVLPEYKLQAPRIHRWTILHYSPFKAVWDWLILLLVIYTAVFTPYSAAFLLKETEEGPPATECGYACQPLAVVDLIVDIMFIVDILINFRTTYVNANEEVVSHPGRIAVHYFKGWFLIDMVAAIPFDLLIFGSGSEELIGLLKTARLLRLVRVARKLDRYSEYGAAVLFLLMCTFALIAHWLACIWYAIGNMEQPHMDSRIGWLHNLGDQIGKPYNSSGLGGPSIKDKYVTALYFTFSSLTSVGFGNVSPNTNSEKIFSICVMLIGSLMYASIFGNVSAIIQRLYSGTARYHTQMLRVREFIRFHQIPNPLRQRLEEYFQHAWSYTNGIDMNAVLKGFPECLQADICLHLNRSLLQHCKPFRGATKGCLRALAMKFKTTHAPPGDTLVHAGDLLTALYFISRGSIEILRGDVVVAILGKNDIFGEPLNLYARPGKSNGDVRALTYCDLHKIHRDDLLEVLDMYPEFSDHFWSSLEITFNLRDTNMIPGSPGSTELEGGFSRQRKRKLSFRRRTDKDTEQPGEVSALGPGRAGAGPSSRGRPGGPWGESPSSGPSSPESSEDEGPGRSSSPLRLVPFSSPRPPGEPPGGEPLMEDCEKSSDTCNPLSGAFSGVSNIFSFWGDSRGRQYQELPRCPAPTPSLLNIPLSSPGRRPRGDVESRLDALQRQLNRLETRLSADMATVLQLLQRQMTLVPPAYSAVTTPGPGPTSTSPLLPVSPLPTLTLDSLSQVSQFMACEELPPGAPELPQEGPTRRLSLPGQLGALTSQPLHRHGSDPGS

remaining at 24 h [1]: 97.9% | IC50 (Interstitial collagenase): > 10 µM | IC50 (Neutrophil collagenase): > 10 µM | IC50 [2]: > 10 µM | IC50 [3]: 0.73 µM | IC50 (Collagenase 3): > 10 µM | IC50 [4]: 1.7 µM | remaining at 336 h [5]: 98.2% | remaining at 336 h [6]: 99.1% | inhibition at 10 µM (CYP1A2): 3.2% | inhibition at 10 µM (CYP2B6): -6.6% | inhibition at 10 µM (CYP2C19): -4.3% | inhibition at 10 µM (CYP2D6 [7]): 6.4% | inhibition at 10 µM (CYP3A [8]): 6% | inhibition at 10 µM (CYP2D6 [9]): -2.9% | inhibition at 10 µM (CYP3A [10]): -13.9% | fraction unbound [11]: 0.178 | fraction unbound [12]: 0.2 | Vd [13]: 0.179 L/kg | clearance [14]: 0.918 mL/min/kg
Structure (SMILES): CC(C)(C)[C@H](NC(=O)[C@H](Cc1ccncc1)NC(=O)CNC(=O)CC[C@H](NS(=O)(=O)c1ccc(Cl)c(C(F)(F)F)c1)C(=O)O)C(=O)Nc1ccc(C(=O)N2CCC(C(=O)N[C@H](CCCCN)C(=O)N3CC[C@H](N)C3)CC2)cc1
inhibition (INH) [15]: Not Active
